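Briefly, cells in 96-well plates were exposed to five compound concentrations for 48 h, and endpoints were estimated by linear interpolation. Here, GI50 denotes the concentration required for 50% inhibition of growth. TGI: total growth inhibition.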
Key:
Test in all cases: NCI anticancer screen, dose series, 48 h
[1] = test system: RPMI-8226 leukemia
[2] = test system: M14 melanoma
[3] = test system: U251 CNS
[4] = test system: HCT-116 colon
[5] = test system: OVCAR-4 ovarian
[6] = test system: NCI-H23 lung
[7] = test system: UACC-257 melanoma
[8] = test system: CAKI-1 renal
[9] = test system: NCI-H226 lung
[10] = test system: MDA-MB-435
[11] = test system: TK-10 renal
[12] = test system: UO-31 renal
[13] = test system: SN12C renal
[14] = test system: HL-60(TB) leukemia
[15] = test system: MDA-MB-231 breast
[16] = test system: 786-0 renal
[17] = test system: UACC-62 melanoma
[18] = test system: SK-MEL-2 melanoma
[19] = test system: DU-145 prostate
[20] = test system: HS 578T breast
[21] = test system: RXF 393 renal
[22] = test system: MCF7 breast
[23] = test system: OVCAR-8 ovarian
[24] = test system: SF-539 CNS
[25] = test system: SNB-19 CNS
[26] = test system: EKVX NSCLC
[27] = test system: SK-MEL-5 melanoma
[28] = test system: NCI/ADR-RES ovarian
[29] = test system: SNB-75 CNS
[30] = test system: SR leukemia
[31] = test system: MALME-3M melanoma
[32] = test system: ACHN renal
[33] = test system: SK-MEL-28 melanoma
[34] = test system: KM12 colon
[35] = test system: A498 renal
[36] = test system: HOP-92 NSCLC
[37] = test system: T-47D breast
[38] = test system: SF-268 CNS
[39] = test system: IGROV1 ovarian
[40] = test system: A549 NSCLC
[41] = test system: K-562 leukemia
[42] = test system: SK-OV-3 ovarian
[43] = test system: OVCAR-5 ovarian
[44] = test system: SF-295 CNS
[45] = test system: LOX IMVI melanoma
[46] = test system: HT29 colon
[47] = test system: NCI-H522 lung
[48] = test system: HCT-15 colon
[49] = test system: PC-3 prostate
[50] = test system: HOP-62 NSCLC
[51] = test system: NCI-H460 lung
[52] = test system: COLO 205 colon
[53] = test system: SW-620 colon
[54] = test system: OVCAR-3 ovarian
[55] = test system: BT-549 breast
[56] = test system: CCRF-CEM leukemia
[57] = test system: MOLT-4 leukemia

CCN1CCN(CC(=O)Nc2nc3ccc(NCc4ccc(Br)cc4)cc3s2)CC1
GI50 [1]: 1.54 µM
TGI [1]: 4.07 µM
GI50 [2]: 1.72 µM
TGI [2]: 3.63 µM
GI50 [3]: 1.92 µM
TGI [3]: 3.79 µM
GI50 [4]: 1.54 µM
TGI [4]: 3.3 µM
GI50 [5]: 3.19 µM
TGI [5]: 26.8 µM
GI50 [6]: 3.22 µM
TGI [6]: > 100 µM
GI50 [7]: 2.28 µM
TGI [7]: 5.14 µM
GI50 [8]: 1.84 µM
TGI [8]: 4.55 µM
GI50 [9]: 7.89 µM
TGI [9]: > 100 µM
GI50 [10]: 1.69 µM
TGI [10]: 3.23 µM
GI50 [11]: 2.24 µM
TGI [11]: 4.55 µM
GI50 [12]: 1.78 µM
TGI [12]: 3.4 µM
GI50 [13]: 2.73 µM
TGI [13]: > 100 µM
GI50 [14]: 1.95 µM
TGI [14]: 3.81 µM
GI50 [15]: 1.89 µM
TGI [15]: 4.15 µM
GI50 [16]: 1.85 µM
TGI [16]: 3.5 µM
GI50 [17]: 1.9 µM
TGI [17]: 3.52 µM
GI50 [18]: 1.95 µM
TGI [18]: 3.63 µM
GI50 [19]: 5.14 µM
TGI [19]: > 100 µM
GI50 [20]: 1.77 µM
TGI [20]: 4.81 µM
GI50 [21]: 1.63 µM
TGI [21]: 3.25 µM
GI50 [22]: 2.05 µM
TGI [22]: 4.9 µM
GI50 [23]: 3.25 µM
TGI [23]: > 100 µM
GI50 [24]: 1.75 µM
TGI [24]: 3.24 µM
GI50 [25]: 2.6 µM
TGI [25]: 6.93 µM
GI50 [26]: 3.02 µM
TGI [26]: > 100 µM
GI50 [27]: 1.68 µM
TGI [27]: 3.08 µM
GI50 [28]: 3.3 µM
TGI [28]: > 100 µM
GI50 [29]: 1.59 µM
TGI [29]: 3.29 µM
GI50 [30]: 2.42 µM
TGI [30]: > 100 µM
GI50 [31]: 1.66 µM
TGI [31]: 3.19 µM
GI50 [32]: 2.03 µM
TGI [32]: 4.4 µM
GI50 [33]: 1.92 µM
TGI [33]: 3.76 µM
GI50 [34]: 3.25 µM
TGI [34]: > 100 µM
GI50 [35]: 1.76 µM
TGI [35]: 3.46 µM
GI50 [36]: 1.21 µM
TGI [36]: 3.04 µM
GI50 [37]: 1.75 µM
TGI [37]: 4.55 µM

C(=C\c1cc[n+](CCc2ccccc2)cc1)/c1ccccc1
TGI [38]: 74.5 µM
TGI [1]: 53.2 µM
TGI [2]: 31.5 µM
TGI [3]: 18.9 µM
TGI [4]: 65.4 µM
TGI [5]: 50.9 µM
TGI [6]: 43.7 µM
TGI [39]: > 100 µM
TGI [40]: 51.8 µM
TGI [7]: 17.5 µM
TGI [8]: 86.1 µM
TGI [41]: 63.6 µM
TGI [9]: 48.9 µM
TGI [10]: 18.4 µM
TGI [42]: > 100 µM
TGI [43]: 88.5 µM
TGI [44]: > 100 µM
TGI [45]: 37 µM
TGI [46]: 35.1 µM
TGI [11]: > 100 µM
TGI [12]: > 100 µM
TGI [13]: 16.4 µM
TGI [15]: 29.1 µM
TGI [16]: > 100 µM
TGI [17]: 22.9 µM
TGI [18]: 55.2 µM
TGI [47]: 45.4 µM
TGI [48]: > 100 µM
TGI [19]: > 100 µM
TGI [20]: 54.6 µM
TGI [49]: > 100 µM
TGI [21]: > 100 µM
TGI [22]: > 100 µM
TGI [50]: 40.4 µM
TGI [23]: 19.5 µM
TGI [24]: 50.5 µM
TGI [51]: > 100 µM
TGI [25]: 50.9 µM
TGI [26]: > 100 µM
TGI [27]: 5.73 µM
TGI [52]: 25.6 µM
TGI [28]: > 100 µM
TGI [29]: > 100 µM
TGI [53]: 32.3 µM
TGI [54]: 26.5 µM
TGI [31]: 28.6 µM
TGI [32]: > 100 µM
TGI [33]: 26.8 µM
TGI [34]: 18.2 µM
TGI [55]: 57.9 µM
TGI [56]: 42.5 µM
TGI [57]: 69.4 µM
TGI [36]: > 100 µM
TGI [37]: 71.7 µM

From PubChem BioAssay (NCI)
